From PubChem BioAssay (NCI)
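Interpolation was linear, between the two tested concentrations surrounding the appropriate level; five concentrations were tested over 48 hours in 96-well plates. Abbreviation: GI50, concentration required for 50% inhibition of growth. At the TGI there is no net growth.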

Experiments:
Assay in all cases: NCI-60 cell line screen, 48 h
RXF 393 renal = test system: RXF 393 renal
SF-539 CNS = test system: SF-539 CNS
RPMI-8226 leukemia = test system: RPMI-8226 leukemia
T-47D breast = test system: T-47D breast
MALME-3M melanoma = test system: MALME-3M melanoma
UACC-257 melanoma = test system: UACC-257 melanoma
U251 CNS = test system: U251 CNS
MCF7 breast = test system: MCF7 breast
EKVX NSCLC = test system: EKVX NSCLC
LOX IMVI melanoma = test system: LOX IMVI melanoma
SF-268 CNS = test system: SF-268 CNS
HT29 colon = test system: HT29 colon
HL-60(TB) leukemia = test system: HL-60(TB) leukemia
NCI-H226 lung = test system: NCI-H226 lung
HOP-92 NSCLC = test system: HOP-92 NSCLC
KM12 colon = test system: KM12 colon
NCI-H23 lung = test system: NCI-H23 lung
SF-295 CNS = test system: SF-295 CNS
SK-MEL-5 melanoma = test system: SK-MEL-5 melanoma
SN12C renal = test system: SN12C renal
A549 NSCLC = test system: A549 NSCLC
CAKI-1 renal = test system: CAKI-1 renal
HCC-2998 colon = test system: HCC-2998 colon
UO-31 renal = test system: UO-31 renal
M14 melanoma = test system: M14 melanoma
MDA-MB-231 breast = test system: MDA-MB-231 breast
SNB-19 CNS = test system: SNB-19 CNS
SK-MEL-2 melanoma = test system: SK-MEL-2 melanoma
ACHN renal = test system: ACHN renal
786-0 renal = test system: 786-0 renal
NCI-H460 lung = test system: NCI-H460 lung
OVCAR-8 ovarian = test system: OVCAR-8 ovarian
DU-145 prostate = test system: DU-145 prostate
IGROV1 ovarian = test system: IGROV1 ovarian
SNB-75 CNS = test system: SNB-75 CNS
SK-OV-3 ovarian = test system: SK-OV-3 ovarian
OVCAR-4 ovarian = test system: OVCAR-4 ovarian
HOP-62 NSCLC = test system: HOP-62 NSCLC
MDA-MB-435 = test system: MDA-MB-435
CCRF-CEM leukemia = test system: CCRF-CEM leukemia
SK-MEL-28 melanoma = test system: SK-MEL-28 melanoma
HS 578T breast = test system: HS 578T breast
NCI/ADR-RES ovarian = test system: NCI/ADR-RES ovarian
TK-10 renal = test system: TK-10 renal
OVCAR-5 ovarian = test system: OVCAR-5 ovarian
UACC-62 melanoma = test system: UACC-62 melanoma
K-562 leukemia = test system: K-562 leukemia
HCT-116 colon = test system: HCT-116 colon
BT-549 breast = test system: BT-549 breast
SW-620 colon = test system: SW-620 colon
SR leukemia = test system: SR leukemia
NCI-H522 lung = test system: NCI-H522 lung
HCT-15 colon = test system: HCT-15 colon
PC-3 prostate = test system: PC-3 prostate
MOLT-4 leukemia = test system: MOLT-4 leukemia
A498 renal = test system: A498 renal

In the case of `COc1ccc2c(c1)C=CC1(O2)Oc2ccc(OC)cc2C=C1C` (stereo not given), the GI50 (RXF 393 renal) is reported as 0.432 µM, the TGI (RXF 393 renal) is reported as 17.7 µM and the GI50 (SF-539 CNS) is reported as 0.396 µM. For the same molecule, the TGI (SF-539 CNS) was 3.02 µM, the GI50 (RPMI-8226 leukemia) was 0.475 µM and the TGI (RPMI-8226 leukemia) was > 25.4 µM. For the same molecule, the GI50 (T-47D breast) was 2.03 µM, the TGI (T-47D breast) was > 65.2 µM and the GI50 (MALME-3M melanoma) was 33 µM. For the same molecule, the TGI (MALME-3M melanoma) was > 100 µM, the GI50 (UACC-257 melanoma) was 0.82 µM and the TGI (UACC-257 melanoma) was > 48.9 µM. It also gave a GI50 (U251 CNS) of 0.456 µM, a TGI (U251 CNS) of 7.86 µM and a GI50 (MCF7 breast) of 0.652 µM. For the same molecule, the TGI (MCF7 breast) was > 100 µM, the GI50 (EKVX NSCLC) was 1.82 µM and the TGI (EKVX NSCLC) was > 100 µM. It also gave a GI50 (LOX IMVI melanoma) of 0.647 µM, a TGI (LOX IMVI melanoma) of 8.52 µM and a GI50 (SF-268 CNS) of 1.81 µM. For the same molecule, the TGI (SF-268 CNS) was > 100 µM, the GI50 (HT29 colon) was 0.345 µM and the TGI (HT29 colon) was 1.62 µM. The GI50 (HL-60(TB) leukemia) was 0.288 µM, the GI50 (NCI-H226 lung) was 4.41 µM and the TGI (NCI-H226 lung) was > 65.6 µM. For the same molecule, the GI50 (HOP-92 NSCLC) was 0.189 µM, the TGI (HOP-92 NSCLC) was 0.93 µM and the GI50 (KM12 colon) was 0.506 µM. For the same molecule, the TGI (KM12 colon) was > 100 µM, the GI50 (NCI-H23 lung) was 1.37 µM and the TGI (NCI-H23 lung) was > 100 µM. For the same molecule, the GI50 (SF-295 CNS) was 0.384 µM, the TGI (SF-295 CNS) was > 100 µM and the GI50 (SK-MEL-5 melanoma) was 0.695 µM. For the same molecule, the TGI (SK-MEL-5 melanoma) was 13.5 µM, the GI50 (SN12C renal) was 0.8 µM and the TGI (SN12C renal) was > 55.9 µM. The GI50 (A549 NSCLC) was 1 µM, the TGI (A549 NSCLC) was > 100 µM and the GI50 (CAKI-1 renal) was 0.632 µM. The TGI (CAKI-1 renal) was > 100 µM, the GI50 (HCC-2998 colon) was 1.35 µM and the TGI (HCC-2998 colon) was 7.36 µM. For the same molecule, the GI50 (UO-31 renal) was 1.31 µM, the TGI (UO-31 renal) was > 46.9 µM and the GI50 (M14 melanoma) was 0.402 µM. The GI50 (MDA-MB-231 breast) was 1.16 µM, the TGI (MDA-MB-231 breast) was > 100 µM and the GI50 (SNB-19 CNS) was 0.598 µM. For the same molecule, the TGI (SNB-19 CNS) was > 100 µM, the GI50 (SK-MEL-2 melanoma) was 0.392 µM and the TGI (SK-MEL-2 melanoma) was 54 µM. For the same molecule, the GI50 (ACHN renal) was 0.673 µM, the TGI (ACHN renal) was > 54.5 µM and the GI50 (786-0 renal) was 0.742 µM. For the same molecule, the TGI (786-0 renal) was > 36.2 µM, the GI50 (NCI-H460 lung) was 0.422 µM and the TGI (NCI-H460 lung) was 2.05 µM. For the same molecule, the GI50 (OVCAR-8 ovarian) was 0.944 µM, the TGI (OVCAR-8 ovarian) was 4.56 µM and the GI50 (DU-145 prostate) was 1.13 µM. For the same molecule, the TGI (DU-145 prostate) was > 100 µM, the GI50 (IGROV1 ovarian) was 0.704 µM and the TGI (IGROV1 ovarian) was > 100 µM. For the same molecule, the GI50 (SNB-75 CNS) was 0.273 µM, the TGI (SNB-75 CNS) was > 100 µM and the GI50 (SK-OV-3 ovarian) was 0.538 µM. The TGI (SK-OV-3 ovarian) was > 100 µM, the GI50 (OVCAR-4 ovarian) was 28.8 µM and the TGI (OVCAR-4 ovarian) was > 100 µM. For the same molecule, the GI50 (HOP-62 NSCLC) was 0.615 µM, the TGI (HOP-62 NSCLC) was > 59.2 µM and the GI50 (MDA-MB-435) was 0.222 µM. It also gave a TGI (MDA-MB-435) of 0.545 µM, a GI50 (CCRF-CEM leukemia) of 0.366 µM and a TGI (CCRF-CEM leukemia) of 4.08 µM. For the same molecule, the GI50 (SK-MEL-28 melanoma) was 4.8 µM, the TGI (SK-MEL-28 melanoma) was > 81.9 µM and the GI50 (HS 578T breast) was 0.348 µM. For the same molecule, the TGI (HS 578T breast) was > 100 µM, the GI50 (NCI/ADR-RES ovarian) was 0.397 µM and the TGI (NCI/ADR-RES ovarian) was > 100 µM. For the same molecule, the GI50 (TK-10 renal) was 7.81 µM, the TGI (TK-10 renal) was > 100 µM and the GI50 (OVCAR-5 ovarian) was 1.76 µM. For the same molecule, the TGI (OVCAR-5 ovarian) was > 100 µM, the GI50 (UACC-62 melanoma) was 0.39 µM and the TGI (UACC-62 melanoma) was > 32.9 µM. The GI50 (K-562 leukemia) was 0.358 µM, the TGI (K-562 leukemia) was > 100 µM and the GI50 (HCT-116 colon) was 0.509 µM. The TGI (HCT-116 colon) was > 24.2 µM, the GI50 (BT-549 breast) was 0.332 µM and the TGI (BT-549 breast) was 1.69 µM. For the same molecule, the GI50 (SW-620 colon) was 0.38 µM, the TGI (SW-620 colon) was 16.7 µM and the GI50 (SR leukemia) was 0.335 µM. For the same molecule, the TGI (SR leukemia) was 22.7 µM, the GI50 (NCI-H522 lung) was 0.303 µM and the TGI (NCI-H522 lung) was 24.1 µM. For the same molecule, the GI50 (HCT-15 colon) was 0.453 µM, the TGI (HCT-15 colon) was 31.4 µM and the GI50 (PC-3 prostate) was 0.461 µM. The TGI (PC-3 prostate) was > 41.9 µM, the GI50 (MOLT-4 leukemia) was 0.447 µM and the TGI (MOLT-4 leukemia) was > 71.6 µM. It also gave a GI50 (A498 renal) of 0.251 µM and a TGI (A498 renal) of 1.06 µM.
